Test results reported in patent US20200131129A1, “FARNESOID X RECEPTOR AGONISTS AND USES THEREOF” (Metacrine, Inc., priority 2017, published 2020).

molecular target: T1, hFXR (Homo sapiens, UniProt Q96RI1); assay: In Vitro FXR Assay (TK): hFXR/hRXR TK-ECRE-luc reporter in transfected CV-1 cells; type: cell-based; settings: CV-1 cells transfected with hFXR, hRXR, 18 hrs incubation, luminescence, maximum efficacy <25% of Fexarmine control also classified as ‘+’
T1 construct: expressed in transfected cells; host or cells: CV-1 cells
T1 sequence (Q96RI1 1-486): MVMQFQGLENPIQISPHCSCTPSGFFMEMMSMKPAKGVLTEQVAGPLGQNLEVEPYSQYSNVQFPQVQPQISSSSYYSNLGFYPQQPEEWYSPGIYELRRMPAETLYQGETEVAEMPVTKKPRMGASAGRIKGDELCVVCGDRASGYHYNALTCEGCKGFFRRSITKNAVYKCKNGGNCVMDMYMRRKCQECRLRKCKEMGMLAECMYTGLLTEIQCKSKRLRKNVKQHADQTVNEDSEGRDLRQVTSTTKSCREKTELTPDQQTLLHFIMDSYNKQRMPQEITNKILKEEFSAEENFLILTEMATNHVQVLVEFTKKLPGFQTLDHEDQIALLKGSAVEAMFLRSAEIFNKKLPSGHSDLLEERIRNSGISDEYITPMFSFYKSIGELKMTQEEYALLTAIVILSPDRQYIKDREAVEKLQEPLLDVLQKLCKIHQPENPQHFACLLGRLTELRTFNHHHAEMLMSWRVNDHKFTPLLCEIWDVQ
T1 sequence (P19793 1-462 partner): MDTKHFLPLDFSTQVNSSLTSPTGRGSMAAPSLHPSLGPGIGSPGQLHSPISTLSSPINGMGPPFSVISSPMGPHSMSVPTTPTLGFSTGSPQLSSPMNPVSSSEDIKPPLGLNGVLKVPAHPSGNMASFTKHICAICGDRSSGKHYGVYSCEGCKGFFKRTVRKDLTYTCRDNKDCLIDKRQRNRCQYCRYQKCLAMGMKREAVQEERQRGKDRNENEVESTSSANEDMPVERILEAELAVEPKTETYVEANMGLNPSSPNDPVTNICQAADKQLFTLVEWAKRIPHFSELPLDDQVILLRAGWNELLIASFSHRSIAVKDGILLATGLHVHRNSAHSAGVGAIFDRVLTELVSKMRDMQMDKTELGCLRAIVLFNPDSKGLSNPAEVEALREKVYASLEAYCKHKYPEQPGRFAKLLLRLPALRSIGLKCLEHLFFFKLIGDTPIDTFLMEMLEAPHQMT
Procedure: Example B-1: In Vitro FXR Assay (TK)
CV-1 cells were seeded at a density of 2,000,000 cells in a T175 flask with DMEM+10% charcoal double-stripped FBS and incubated at 37° C. in 5% CO2 for 18 h (O/N).
After 18 h of incubation, the medium in the T175 flask was changed with fresh DMEM+10% charcoal super-stripped serum. In a polypropylene tube, 2500 μL OptiMEM (Life Technologies, Cat #31985-062) was combined with expression plasmids for hFXR, hRXR, TK-ECRE-luc and pCMX-YFP. The tube was then briefly vortexed and incubated at room temperature for 5 minutes. Transfection reagent (X-tremeGENE HP from Roche, Cat #06 366 236 001) was added to the OptiMEM/plasmid mixture vortexed and incubated at room temperature for 20 minutes. Following incubation, the transfection reagent/DNA mixture complex was added to cells in the T175 flask and the cells were incubated at 37° C. in 5% CO2 for 18 h (0/N).
Compounds were serially diluted in DMSO and added to transfected CV-1 cells. The cells were then incubated for 18 hrs. The next day cells were lysed and examined for luminescence.

| EC50 [nM] | SMILES |
| --- | --- |
| ≤ 500 | COc1ccc(-c2cccc(N(C[C@H]3CC[C@H](c4ccc(OC)c(C)c4)CC3)C(=O)[C@H]3CC[C@H](O)CC3)c2)nc1 [Compound 1.03, trans-4-Hydroxy-N-((trans-4-(4-methoxy-3-methylphenyl)cyclohexyl)methyl)-N-(3-(5-methoxypyridin-2-yl)phenyl)cyclohexanecarboxamide] |
| ≤ 500 | COc1ccc([C@H]2CC[C@H](CN(c3cccc(-n4ccc(C)c4)c3)C(=O)[C@H]3CC[C@H](O)CC3)CC2)cc1C [Compound 4] |
| ≥ 1000 | COc1ccc([C@H]2CC[C@H](CN(c3cccc(-c4cn(C)cn4)c3)C(=O)[C@H]3CC[C@H](O)CC3)CC2)cc1C [Compound 2.11, trans-4-Hydroxy-N-((trans-4-(4-methoxy-3-methylphenyl)cyclohexyl)methyl)-i-(3-(1-methyl-1H-imidazol-4-yl)phenyl)cyclohexanecarboxamide] |
| ≤ 500 | COc1ccc([C@H]2CC[C@H](CN(c3cccc(C#Cc4ncn(C)n4)c3)C(=O)[C@H]3CC[C@H](O)CC3)CC2)cc1C [Compound 12, trans-4-Hydroxy-N-((trans-4-(4-methoxy-3-methylphenyl)cyclohexyl)methyl)-N-(3-((1-methyl-1H-1,2,4-triazol-3-yl)ethynyl)phenyl)cyclohexanecarboxamide] |
| ≥ 1000 | COc1ccc([C@H]2CC[C@H](CN(c3cccc(-n4cc(C)nn4)c3)C(=O)[C@H]3CC[C@H](O)CC3)CC2)cc1C [Compound 9.09, trans-4-Hydroxy-N-((trans-4-(4-methoxy-3-methylphenyl)cyclohexyl)methyl)-N-(3-(4-methyl-1H-1,2,3-triazol-1-yl)phenyl)cyclohexanecarboxamide] |
| ≤ 500 | COc1ccc([C@H]2CC[C@H](CN(c3cc(-c4coc(C5CC5)n4)ccn3)C(=O)[C@H]3CC[C@H](O)CC3)CC2)cc1C [Compound 10.07, trans-N-(4-(2-Cyclopropyloxazol-4-yl)pyridine-2-yl)-4-hydroxy-N-((trans-4-(4-methoxy-3-methylphenyl)cyclohexyl)methyl) cyclohexanecarboxamide] |
| 500 to 1000 | Cn1ccc2cc([C@H]3CC[C@H](CN(c4cccc(-c5coc(C6CC6)n5)c4)C(=O)[C@H]4CC[C@H](O)CC4)CC3)ncc21 [Compound 10.21] |
| ≤ 500 | COc1ccc([C@H]2CC[C@H](CN(c3cccc(-c4cc(C)no4)c3)C(=O)[C@H]3CC[C@H](O)CC3)CC2)cc1C [Compound 3, trans-4-Hydroxy-N-((trans-4-(4-methoxy-3-methylphenyl)cyclohexyl)methyl)-N-(3-(3-methylisoxazol-5-yl)phenyl)cyclohexanecarboxamide] |
| ≤ 500 | COc1ccc([C@H]2CC[C@H](CN(c3cccc(C#Cc4cnn(C)n4)c3)C(=O)[C@H]3CC[C@H](O)CC3)CC2)cc1C [Compound 12.01, trans-4-Hydroxy-N-((trans-4-(4-methoxy-3-methylphenyl)cyclohexyl)methyl)-N-(3-((2-methyl-2H-1,2,3-triazol-4-yl)ethynyl)phenyl)cyclohexanecarboxamide] |
| ≤ 500 | COc1ccc([C@H]2CC[C@H](CN(c3cccc(-n4cnc(C5CC5)n4)c3)C(=O)[C@H]3CC[C@H](O)CC3)CC2)cc1C [Compound 7.01, trans-N-(3-(3-Cyclopropyl-1H-1,2,4-triazol-1-yl)phenyl)-4-hydroxy-N-((trans-4-(4-methoxy-3-methylphenyl)cyclohexyl)methyl)cyclohexanecarboxamide] |
| 500 to 1000 | COc1ccc([C@H]2CC[C@H](CN(c3cccc(-c4nc(C)ns4)c3)C(=O)[C@H]3CC[C@H](O)CC3)CC2)cc1C [Compound 2.08, trans-4-Hydroxy-N-((trans-4-(4-methoxy-3-methylphenyl)cyclohexyl)methyl)-N-(3-(3-methyl-1,2,4-thiadiazol-5-yl)phenyl)cyclohexanecarboxamide] |
| ≤ 500 | COc1ccc([C@H]2CC[C@H](CN(c3cccc(-c4ccc(C5CC5)nc4)c3)C(=O)[C@H]3CC[C@H](O)CC3)CC2)cc1C [Compound 1.07, trans-N-(3-(6-Cyclopropylpyridin-3-yl)phenyl)-4-hydroxy-N-((trans-4-(4-methoxy-3-methylphenyl)cyclohexyl)methyl)cyclohexanecarboxamide] |
| ≤ 500 | COc1ccc([C@H]2CC[C@H](CN(c3cc(-c4coc(C(C)C)n4)ccn3)C(=O)[C@H]3CC[C@H](O)CC3)CC2)nc1C [Compound 10.17, trans-4-Hydroxy-N-(4-(2-isopropyloxazol-4-yl)pyridine-2-yl)-N-((trans-4-(5-methoxy-6-methylpyridin-2-yl)cyclohexyl)methyl) cyclohexanecarboxamide] |
| ≤ 500 | COc1ccc([C@H]2CC[C@H](CN(c3cc(-c4coc(C(C)C)n4)ccn3)C(=O)[C@H]3CC[C@H](O)CC3)CC2)cc1C [Compound 10.13, trans-4-Hydroxy-N-(4-(2-isopropyloxazol-4-yl)pyridine-2-yl)-N-((trans-4-(4-methoxy-3-methylphenyl)cyclohexyl)methyl) cyclohexanecarboxamide] |
| ≤ 500 | CN(C)c1ccc(C23CCC(CN(c4cccc(-c5coc(C6CC6)n5)c4)C(=O)[C@H]4CC[C@H](O)CC4)(CC2)CC3)cn1 [Compound 10.03, trans-N-(3-(2-Cyclopropyloxazol-4-yl)phenyl)-N-((4-(6-(dimethylamino)pyridine-3-yl)bicyclo[2.2.2]octan-1-yl)methyl)-4-hydroxycyclohexanecarboxamide] |
| ≤ 500 | COc1ccc([C@H]2CC[C@H](CN(c3cccc(-c4ccc(C(C)C)nc4)c3)C(=O)[C@H]3CC[C@H](O)CC3)CC2)cc1C [Compound 2.03, trans-4-Hydroxy-I-(3-(6-isopropylpyridin-3-yl)phenyl)-N-((trans-4-(4-methoxy-3-methylphenyl)cyclohexyl)methyl)cyclohexanecarboxamide] |
| ≤ 500 | COc1ccc([C@H]2CC[C@H](CN(c3cccc(C#Cc4nncs4)c3)C(=O)[C@H]3CC[C@H](O)CC3)CC2)cc1C [Compound 11.02, trans-N-(3-((1,3,4-Thiadiazol-2-yl)ethynyl)phenyl)-4-hydroxy-N-((trans-4-(4-methoxy-3-methylphenyl)cyclohexyl)methyl) cyclohexanecarboxamide] |
| ≥ 1000 | COc1ccc([C@H]2CC[C@H](CN(c3cccc(-c4nnc(C)s4)c3)C(=O)[C@H]3CC[C@H](O)CC3)CC2)cc1C [Compound 2.04, trans-4-Hydroxy-N-((trans-4-(4-methoxy-3-methylphenyl)cyclohexyl)methyl)-N-(3-(5-methyl-1,3,4-thiadiazol-2-yl)phenyl)cyclohexanecarboxamide] |
| ≤ 500 | COc1ccc([C@H]2CC[C@H](CN(c3cccc(-c4ccc(OC(C)C)nc4)c3)C(=O)[C@H]3CC[C@H](O)CC3)CC2)cc1C [Compound 1.06, trans-4-Hydroxy-N-(3-(6-isopropoxypyridin-3-yl)phenyl)-N-((trans-4-(4-methoxy-3-methylphenyl)cyclohexyl)methyl)cyclohexanecarboxamide] |
| ≤ 500 | COc1ccc([C@H]2CC[C@H](CN(c3cccc(C#Cc4cn(C)nn4)c3)C(=O)[C@H]3CC[C@H](O)CC3)CC2)cc1C [Compound 12.02, trans-4-Hydroxy-N-((trans-4-(4-methoxy-3-methylphenyl)cyclohexyl)methyl)-N-(3-((1-methyl-1H-1,2,3-triazol-4-yl)ethynyl)phenyl)cyclohexanecarboxamide] |
| ≤ 500 | COc1ccc([C@H]2CC[C@H](CN(c3cc(-c4coc(C5CC5)n4)ccn3)C(=O)[C@H]3CC[C@H](O)CC3)CC2)cc1C#N [Compound 10.12, trans-N-((trans-4-(3-Cyano-4-methoxyphenyl)cyclohexyl)methyl)-N-(4-(2-cyclopropyloxazol-4-yl)pyridine-2-yl)-4-hydroxycyclohexanecarboxamide] |
